Key:
[1] = tested on: SU-DHL-6 cells; assay: Signaling by Western blot; type: cell-based, human
Method: (§1) Raji and SU-DHL-6 cells were treated with X-370 for 1 h (left panel) or treated with 0.5 μM X-370 for indicated times (middle panel). Right panel, Raji cells were incubated in fresh medium following treatment with 0.5 μM X-370 for 1 h. Indicated proteins were detected. (B) Raji-R (the rituximab-resistant derivatives of Raji cells) cells were resistant to X-370. The activity of X-370 on the proliferation of Raji parent and Raji-R cells was determined by CCK-8 assay as described in the methods section. (C) X-370 blocked phosphorylation of Akt but not Erk1/2 in Raji-R cells. Raji-R cells were treated with X-370 for 1h and indicated proteins were detected. Data shown are representative from three independent experiments.
(§2) Figure 5 Inhibition of Erk1/2 phosphorylation by X-370 contributed to its antiproliferative activity (A-C) X-370 inhibited Erk1/2 phosphorylation via PI3K-PDK1-MEK1/2 cascade but not the PI3K-Gab1 positive feedback loop. (A) Raji and SU-DHL-6 cells were exposed to 1 μM X370 for 3 h and protein fraction from cellular membrane was separated using Native Membrane Protein Extraction Kit and probed. WCL: whole cell lysate. (B) Inhibition of PDK1 or MEK1/2 abrogated Erk1/2 phosphorylation. Cells were treated with pharmacological inhibitors of Raf (AZ 628, PLX4032), MEK1/2 (AZD6244), p90RSK (BI-D1870), PI3Kδ (X-370), PDK1 (BX-912), Akt (MK-2206), mTOR (AZD8055) or mTORC1 (Rapamycin) respectively and indicated proteins were detected. (C) X-370 disrupted the association between PDK1 and MEK1/2. Raji cells were treated with 1 μM X370 for 1 h and cell lysates were immunoprecipitated with anti-PDK1 antibody and indicated proteins were detected. WCL: whole cell lysate. (D-F) Inhibition of Erk1/2 phosphorylation was required for the anti-proliferative activity of X-370. (D) Raji cells ectopically expressing a constitutively activated phospho-mimic MEK1 mutant (MEK1 […] or MEK DD) were incubated with X-370 or AZD6244 for 1 h and then subjected to Western blot. (E) Raji and Raji MEK DD cells were treated with X-370 for 72 h and cell proliferation was detected by CCK-8 assay. (F) Raji MEK DD cells were treated with X-370 and AZD6244 and cell proliferation was detected by CCK-8 assay. Data were show as mean ± SD of three independent experiments. *: p < 0.05 determined by t-tests at each data point. […]
(§3) Cells were treated as indicated conditions and then subjected to lysate to perform standard Western blot as described previously1. Briefly, whole-cell lysates and SDS-loading buffer diluted cell fractions were analyzed on SDS-PAGE gels. Transfer to nitrocellulose membranes, nonfat milk blocking, probing with indicated primary antibodies and the corresponding HRP-conjugated second antibodies.
(§4) Chemiluminescence were performed and captured using ImageQuant LAS 4000 (GE healthcare Life Sciences, Piscataway, NJ, USA) and band intensity was measure both with ImageQuant™ TL (GE Healthcare Life Sciences) 2. […]
(§5) (also on this page, place not known: PI3Kδ -dependent MEK1/2 - B -cell previously 1. whole -cell SDS -loading SDS -PAGE HRP -conjugated (G E A B Val828 Trp760 Thr750 Met752 Tyr813 affinity pocket specificity pocket hinge Glu826 CAL-101 X-370) […]
(§6) (1 picture or pasted object on this page, not shown here)

[2] = tested on: Raji cells; assay: Signaling by Western blot; type: cell-based, human; settings: Raji
Method: as §1, §2, §3, §4, §5, §6

In the case of `O=C(N1CCCC1)N1CCC(n2cnc3c(-n4c(C(F)F)nc5ccccc54)nc(N4CCOCC4)nc32)CC1` [X-370], the “phosphorylation of Erk1/2 at T202/Y204” value ([1]; SU-DHL-6) is reported as “decreased in lockstep with inactivation of Akt”, the “phosphorylation of Akt at the membrane” value ([1]; SU-DHL-6, 1 μM, 3 h, membrane fraction) is reported as “abolished” and the “concentration as low as which Akt phosphorylation was significantly reduced” value ([1]; SU-DHL-6, 1 h) is reported as 5 nM. For the same compound, the “reversibility of action on PI3K and Erk1/2 after compound removal” value ([1]; SU-DHL-6, 0.5 μM 1 h then drug-free medium, restoration after 15 minutes to 1 h) was “rapidly reversible”, the “phosphorylation of Erk1/2 at T202/Y204” value [2] was “decreased in lockstep with inactivation of Akt” and the “phosphorylation of MEK1/2 at Ser217/221” value ([2]; 1 μM, 1 h) was “inhibited”. For the same compound, the “phosphorylation of Akt at the membrane” value ([2]; 1 μM, 3 h, membrane fraction) was “abolished”, the “concentration as low as which Akt phosphorylation was significantly reduced” value ([2]; 1 h) was 5 nM and the “reversibility of action on PI3K and Erk1/2 after compound removal” value ([2]; 0.5 μM 1 h then drug-free medium, restoration after 15 minutes to 1 h) was “rapidly reversible”.

Source: paper PMC4279406, “Simultaneous targeting of PI3Kδ and a PI3Kδ-dependent MEK1/2-Erk1/2 pathway for therapy in pediatric B-cell acute lymphoblastic leukemia” (Oncotarget, 2014)
